Entries after “also recorded” stand apart in the source; their conditions may differ.
What was measured:
Assay type in all cases: cell-based
HCRTR1 [1] = molecular target: T1, HCRTR1 (Homo sapiens, UniProt O43613); experiment: PathHunter β-Arrestin GPCR antagonist assay, HCRTR1; conditions: for HCRTR1 (Antagonist) percent inhibition: antagonist mode, agonist challenge at EC80
T1 sequence (O43613 1-425): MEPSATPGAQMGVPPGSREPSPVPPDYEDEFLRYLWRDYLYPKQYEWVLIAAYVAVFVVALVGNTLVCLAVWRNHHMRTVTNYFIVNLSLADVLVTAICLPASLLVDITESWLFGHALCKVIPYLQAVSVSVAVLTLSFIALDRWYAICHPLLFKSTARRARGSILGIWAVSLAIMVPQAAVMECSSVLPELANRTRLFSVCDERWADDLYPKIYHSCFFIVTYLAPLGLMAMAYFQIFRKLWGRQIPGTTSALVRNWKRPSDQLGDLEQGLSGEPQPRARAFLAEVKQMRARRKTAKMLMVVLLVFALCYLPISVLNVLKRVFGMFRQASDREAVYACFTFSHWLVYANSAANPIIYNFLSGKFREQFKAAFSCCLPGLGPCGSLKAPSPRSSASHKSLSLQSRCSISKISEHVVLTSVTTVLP
Procedure: (§1) To evaluate the role specific cannabinoid compounds may play on the sleep/wake cycle, a GPCR reactivity assay was performed to determine the reactivity of 19 cannabinoid compounds to the orexin receivers HCRTR1 and HCRTR2. The evaluated cannabinoid compounds were: CBN, THCV, CBDVA, CBG, CBL, CBC, CBDV, CBDA, CBD, CBGA, (+)-CBD, CBG-C4, CBD-C1, CBD-C2, CBGV, CBGA-C4, CBGVA, CBCA, and CBLA. Orexin A was used as the control for HCRTR1 and HCRTR2.
(§2) To perform the GPCR reactivity assay, a commercial GPCR assay, PathHunter® β-Arrestin from Eurofins DiscoverX Products (Fremont, Calif.), was used. […] At activation of the GPCR receptor and recruitment of β-arrestin, complementation of the peptide fragments occurs and restores β-galactosidase activity. The amount of β-galactosidase activity is then measurable using chemiluminescent reagents.
(§3) In each of the two antagonist assays, PathHunter® cell lines were removed from a freezer stock and seeded at a volume of 20 μL into white walled, 384-well microplates and incubated at 37° C. Each cell was pre-incubated with an antagonist followed by an agonist challenge at the EC80 concentration. Cells were then diluted to generate a 5× sample in assay buffer. 5 μL of the 5× sample was then added to cells and incubated at 37° C. for 30 minutes. Finally, 5 μL of 6×EC80 agonist in assay buffer were added to the cells and incubated at 37° C. for 90 minutes or 180 minutes. The assay signal was generated through addition of 12.5 μL or 15 μL (50% V/V) of a detection reagent cocktail followed by a one hour incubation time at room temperature. Microplates were read following signal generation with a PerkinElmer Envision™ (PerkinElmer Inc., Waltham, Mass.) for chemiluminescent signal detection. Reactivity was analyzed using the CBIS data analysis suite (ChemInnovation, CA) where RLU refers to the raw measured values. The percent inhibition was calculated using the formula: % Inhibition=100%*(1−mean RLU of test sample−mean RLU of control)/(mean RLU of EC80 control−mean RLU of vehicle control).
(§4) For agonist activity, the percent activity is depicted while for antagonist activity, the percent inhibition is depicted.

HCRTR2 [2] = molecular target: T2, HCRTR2 (Homo sapiens, UniProt O43614); experiment: PathHunter β-Arrestin GPCR agonist assay, HCRTR2; design: concentration or dose not given beside the values; conditions: agonist mode; Orexin A as control
T2 sequence (O43614 1-444): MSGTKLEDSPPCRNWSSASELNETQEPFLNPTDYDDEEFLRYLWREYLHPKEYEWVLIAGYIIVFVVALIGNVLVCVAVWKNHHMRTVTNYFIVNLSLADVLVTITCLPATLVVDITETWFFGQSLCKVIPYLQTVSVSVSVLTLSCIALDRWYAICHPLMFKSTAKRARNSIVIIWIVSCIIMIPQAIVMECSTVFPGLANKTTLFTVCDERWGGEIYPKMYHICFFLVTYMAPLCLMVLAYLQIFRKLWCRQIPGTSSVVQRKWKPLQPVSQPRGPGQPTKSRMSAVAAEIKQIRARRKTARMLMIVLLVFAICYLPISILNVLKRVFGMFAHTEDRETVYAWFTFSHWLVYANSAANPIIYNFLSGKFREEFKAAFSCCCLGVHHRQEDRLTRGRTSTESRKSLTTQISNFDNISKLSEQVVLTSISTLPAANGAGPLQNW
Procedure: as §1, §2
(§5) A total of four assays were run. Agonist assays were run for each of HCRTR1 and HCRTR2 and antagonist assays were run for HCRTR1 and HCRTR2. In each of the two agonist assays, PathHunter® cell lines were removed from a freezer stock and seeded at a volume of 20 μL into white walled, 384-well microplates and incubated at 37° C. Each cell was incubated with a sample to induce a response and then diluted to generate a 5× sample in assay buffer. 5 μL of the 5× sample was then added to cells and incubated at 37° C. for 90 or 180 minutes. The final assay concentration was 1%. The assay signal was generated through addition of 12.5 μL or 15 μL (50% V/V) of a detection reagent cocktail followed by a one hour incubation time at room temperature. Microplates were read following signal generation with a PerkinElmer Envision™ (PerkinElmer Inc., Waltham, Mass.) for chemiluminescent signal detection. Reactivity was analyzed using the CBIS data analysis suite (ChemInnovation, CA) where RLU refers to the raw measured values. The percent activity was then calculated using the formula: % Activity=100%*(mean RLU of test sample−mean RLU of control)/(mean max control ligand−mean RLU of vehicle control).
as §4

dopamine receptor DRD5 = dopamine receptor DRD5 (Homo sapiens, UniProt P21918); experiment: PathHunter β-Arrestin GPCR agonist assay, DRD5; design: DRD5 (Agonist) percent activity: concentration or dose not given beside the values; conditions: for DRD5 (Agonist) percent activity: agonist mode, dopamine as control
Description: as §2, §5
Table 2 depicts the results of evaluating the cannabinoid compounds to act as an agonist for the dopamine receptor DRD5. The same experimental procedure as used for HCRTR1 and HCRTR2 agonist testing (Table 1) was followed with the substitution of dopamine as the control for the DRD5 receptor.

HCRTR2 [3] = molecular target: T2, HCRTR2; experiment: PathHunter β-Arrestin GPCR antagonist assay, HCRTR2; conditions: for HCRTR2 (Antagonist) percent inhibition: antagonist mode, agonist challenge at EC80
Procedure: as §1, §2, §3, §4

HCRTR1 [4] = molecular target: T1, HCRTR1; experiment: PathHunter β-Arrestin GPCR agonist assay, HCRTR1; design: concentration or dose not given beside the values; conditions: agonist mode; Orexin A as control
Procedure: as §1, §2, §5, §4

Chain of dopamine receptor DRD5 (P21918 whole entry): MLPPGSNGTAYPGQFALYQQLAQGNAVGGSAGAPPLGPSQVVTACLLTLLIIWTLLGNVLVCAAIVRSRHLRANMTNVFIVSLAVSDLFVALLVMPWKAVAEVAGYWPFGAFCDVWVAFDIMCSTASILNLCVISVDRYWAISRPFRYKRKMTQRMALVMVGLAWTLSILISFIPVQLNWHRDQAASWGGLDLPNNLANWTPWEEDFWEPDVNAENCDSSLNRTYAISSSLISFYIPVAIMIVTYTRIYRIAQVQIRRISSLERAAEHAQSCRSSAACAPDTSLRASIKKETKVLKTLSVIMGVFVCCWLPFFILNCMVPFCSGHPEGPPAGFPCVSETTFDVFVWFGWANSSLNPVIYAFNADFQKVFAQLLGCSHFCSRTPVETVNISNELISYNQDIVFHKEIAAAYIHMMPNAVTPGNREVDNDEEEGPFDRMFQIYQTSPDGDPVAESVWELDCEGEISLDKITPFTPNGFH

CCCc1cc(O)c(C/C=C(\C)CCC=C(C)C)c(O)c1C(=O)O [CBGVA, cannabigerovarinic acid]
antagonist effect on HCRTR1 (in words) (HCRTR1 [1]): do not demonstrate meaningful activity | HCRTR1 (Antagonist) percent inhibition (HCRTR1 [1]): 3% | HCRTR2 (Agonist) percent activity (HCRTR2 [2]): 1% | DRD5 (Agonist) percent activity (dopamine receptor DRD5): 0% | antagonist effect on HCRTR2 (in words) (HCRTR2 [3]): do not demonstrate meaningful activity | HCRTR2 (Antagonist) percent inhibition (HCRTR2 [3]): 12% | HCRTR1 (Agonist) percent activity (HCRTR1 [4]): 0%

CCCCCc1cc(O)c2c(c1)OC1(C)CCC3C1C2C3(C)C (centres unmarked) [CBL, cannabicyclol]
antagonist effect on HCRTR1 (in words) (HCRTR1 [1]): antagonist effect; also recorded: acted as an antagonist | HCRTR1 (Antagonist) percent inhibition (HCRTR1 [1]): 96% | HCRTR2 (Agonist) percent activity (HCRTR2 [2]): 5% | DRD5 agonist effect (in words) (dopamine receptor DRD5): DRD5 agonists; also recorded: stronger agonist effects | DRD5 (Agonist) percent activity (dopamine receptor DRD5): 37% | antagonist effect on HCRTR2 (in words) (HCRTR2 [3]): antagonist effect; also recorded: acted as an antagonist | HCRTR2 (Antagonist) percent inhibition (HCRTR2 [3]): 93% | HCRTR1 (Agonist) percent activity (HCRTR1 [4]): 2%

CCCCCc1cc2c(c(O)c1C(=O)O)C1C3C(CCC3(C)O2)C1(C)C (centres unmarked) [CBLA, cannabicyclolic acid]
antagonist effect on HCRTR1 (in words) (HCRTR1 [1]): do not demonstrate meaningful activity | HCRTR1 (Antagonist) percent inhibition (HCRTR1 [1]): 7% | HCRTR2 (Agonist) percent activity (HCRTR2 [2]): 0% | DRD5 (Agonist) percent activity (dopamine receptor DRD5): 0% | antagonist effect on HCRTR2 (in words) (HCRTR2 [3]): do not demonstrate meaningful activity | HCRTR2 (Antagonist) percent inhibition (HCRTR2 [3]): 15% | HCRTR1 (Agonist) percent activity (HCRTR1 [4]): 2%

CCCCCc1cc(O)c2c(c1)OC(C)(C)c1ccc(C)cc1-2 [CBN, cannabinol]
antagonist effect on HCRTR1 (in words) (HCRTR1 [1]): antagonist effect; also recorded: acted as an antagonist | HCRTR1 (Antagonist) percent inhibition (HCRTR1 [1]): 95% | HCRTR2 (Agonist) percent activity (HCRTR2 [2]): 7% | DRD5 (Agonist) percent activity (dopamine receptor DRD5): 3% | antagonist effect on HCRTR2 (in words) (HCRTR2 [3]): antagonist effect; also recorded: acted as an antagonist | HCRTR2 (Antagonist) percent inhibition (HCRTR2 [3]): 94% | HCRTR1 (Agonist) percent activity (HCRTR1 [4]): 1%

CCCc1cc(O)c2c(c1)OC(C)(C)[C@@H]1CCC(C)=C[C@@H]21 [THCV, tetrahydrocannabivarin]
antagonist effect on HCRTR1 (in words) (HCRTR1 [1]): antagonist effect; also recorded: acted as an antagonist | HCRTR1 (Antagonist) percent inhibition (HCRTR1 [1]): 89% | HCRTR2 (Agonist) percent activity (HCRTR2 [2]): 6% | DRD5 agonist effect (in words) (dopamine receptor DRD5): DRD5 agonists; also recorded: stronger agonist effects | DRD5 (Agonist) percent activity (dopamine receptor DRD5): 52% | antagonist effect on HCRTR2 (in words) (HCRTR2 [3]): antagonist effect; also recorded: acted as an antagonist | HCRTR2 (Antagonist) percent inhibition (HCRTR2 [3]): 89% | HCRTR1 (Agonist) percent activity (HCRTR1 [4]): 2%

(+)-cannabidiol [(+)-CBD]
antagonist effect on HCRTR1 (in words) (HCRTR1 [1]): antagonist effect; also recorded: acted as an antagonist | HCRTR1 (Antagonist) percent inhibition (HCRTR1 [1]): 97% | HCRTR2 (Agonist) percent activity (HCRTR2 [2]): 8% | DRD5 (Agonist) percent activity (dopamine receptor DRD5): 9% | antagonist effect on HCRTR2 (in words) (HCRTR2 [3]): antagonist effect; also recorded: acted as an antagonist | HCRTR2 (Antagonist) percent inhibition (HCRTR2 [3]): 80% | HCRTR1 (Agonist) percent activity (HCRTR1 [4]): 3%
